{
  "source": "patent US10987332B2",
  "about": "“Sprayable aqueous composition comprising glyceryl trinitrate” (G. POHL-BOSKAMP GMBH & CO. KG, priority 2013, dated 2021)",
  "origin": "cited, not measured here",
  "key": {"[1]": {"tested_on": "Sprague-Dawley rats", "conditions": "RIP (Modules 2-4)"}, "[2]": {"tested_on": "Sprague-Dawley rats", "conditions": "rat, in vivo"}},
  "data": [
    {"smiles": "O=[N+]([O-])O[C@H]1CO[C@H]2[C@@H]1OC[C@H]2O[N+](=O)[O-]", "note": "[ISDN, isosorbide dinitrate]", "values": [
      {"measurement": "VPB-Score", "setting": "[1]", "value": 4.57},
      {"measurement": "Infarct size", "setting": "[2]", "value": "7.59±4.38", "unit": "%"}
    ]},
    {"smiles": "O=[N+]([O-])OCC(CO[N+](=O)[O-])O[N+](=O)[O-]", "note": "[NTG, nitroglycerin]", "values": [
      {"measurement": "solubility in water", "value": "about 1 mg/ml"}
    ]}
  ]
}
